# How the values were obtained:
# [1] = system: Plasmodium falciparum; assay: In vitro inhibition of Plasmodium falciparum K1 (0.2253 ug/mL); assay type: functional, organism-based
# [2] = In vitro cytotoxicity against mammalian L-6 cell line; assay type: functional, cell-based; settings: L6
# [3] = system: Plasmodium falciparum; assay: In vitro inhibition of Plasmodium falciparum K1 (0.0088 ug/mL); assay type: functional, organism-based
# [4] = system: Plasmodium falciparum; assay: In vitro inhibition of Plasmodium falciparum K1 (0.0013 ug/mL); assay type: functional, organism-based
# [5] = system: Plasmodium falciparum; assay: In vitro inhibition of Plasmodium falciparum K1 (0.0008 ug/mL); assay type: functional, organism-based
# [6] = system: Plasmodium falciparum; assay: In vitro inhibition of Plasmodium falciparum K1 (0.0024 ug/mL); assay type: functional, organism-based
# [7] = system: Plasmodium falciparum; assay: In vitro inhibition of Plasmodium falciparum K1 (0.00054 ug/mL); assay type: functional, organism-based
# [8] = system: Plasmodium falciparum; assay: In vitro inhibition of Plasmodium falciparum K1 (0.00065 ug/mL); assay type: functional, organism-based
smiles,measurement,setting,value
C=C(C)[C@@H]1OOC(C)(C)O[C@H]1C,IC50,[1],1310 nM
C=C(C)[C@@H]1OOC2(CCCC2)O[C@H]1C(C)(C)C,IC50,[2],3.7 µg/mL
same,IC50,[3],36.6 nM
C=C(C)C1OO[C@]2(O[C@H]1C)[C@H]1CC3C[C@@H](C1)C[C@H]2C3 (stereo partly drawn),IC50,[2],1.7 µg/mL
same,IC50,[4],4.9 nM
O[C@H](c1cc(C(F)(F)F)nc2c(C(F)(F)F)cccc12)[C@@H]1CCCCN1 [MEFLOQUINE],IC50,[2],1.9 µg/mL
C[C@@H]1CC[C@H]2[C@@H](C)C(=O)O[C@@H]3O[C@@]4(C)CC[C@@H]1[C@]32OO4 [ARTEMISININ],IC50,[5],2.8 nM
C=C(C)[C@@H]1OOC2(CCCC2)O[C@H]1C(C)C,IC50,[2],0.82 µg/mL
same,IC50,[6],10.6 nM
C=C(C)C1OO[C@]2(O[C@H]1C1CC1)[C@H]1CC3C[C@@H](C1)C[C@H]2C3 (stereo partly drawn),IC50,[2],0.74 µg/mL
same,IC50,[7],1.9 nM
C=C(C)[C@@H]1OOC2(CCCCC2)O[C@H]1C,IC50,[2],0.46 µg/mL
same,IC50,[8],3.1 nM

# From ChEMBL document CHEMBL1144274, “Novel spiroanellated 1,2,4-trioxanes with high in vitro antimalarial activities” (Bioorg Med Chem Lett, 2005)
